Measured values reported in publication PMC6364417, “Kinase inhibitor library screening identifies synergistic drug combinations effective in sensitive and resistant melanoma cells” (Journal of Experimental & Clinical Cancer Research : CR, 2019).

Tests used:
Experiment in all cases: Kinase inhibitor library screening, PrestoBlue cell viability, 1 or 10 μM, 72 h
[1] = system: IGR37-GP cells (Dabrafenib-resistant)
[2] = system: 501Mel-GP cells (Dabrafenib-resistant)
[3] = system: 501Mel cells (parental)
Procedure, shortened: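 Treatment: 72 h with inhibitor. Detection: PrestoBlue, plate reader. Output: viability as % untreated control. Replicates: duplicate minimum. Lines: parental plus Vemurafenib- or Dabrafenib-resistant derivatives.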

[4] = system: A375-XP cells (Vemurafenib-resistant)
[5] = system: IGR37 cells (parental)
[6] = system: A375 cells (parental)
[7] = system: A375-GP cells (Dabrafenib-resistant)
[8] = system: 501Mel-XP cells (Vemurafenib-resistant)
[9] = system: IGR37-XP cells (Vemurafenib-resistant)
[10] = 501Mel Parental, 1μΜ, 72 h, in %
[11] = 501Mel Parental, 10μΜ, 72 h, in %
[12] = IGR37 Parental, 1μΜ, 72 h, in %
[13] = IGR37 Parental, 10μΜ, 72 h, in %

## CCN1CCN(C(=O)Cc2ccc(Nc3ncc(F)c(Nc4ccc(C(=O)Nc5ccccc5Cl)cc4)n3)cc2)CC1 [Aurora A Inhibitor I]
[1]; IGR37 GP, 1μΜ, 72 h
  cell viability (kinase inhibitor library screening): 90.4%
[1]; IGR37 GP, 10μΜ, 72 h
  cell viability (kinase inhibitor library screening): 5.3%
[2]; 501Mel GP, 1μΜ, 72 h
  cell viability (kinase inhibitor library screening): 99.5%
[2]; 501Mel GP, 10μΜ, 72 h
  cell viability (kinase inhibitor library screening): 29.4%
[3]; 501Mel Parental, 1μΜ, 72 h
  cell viability (kinase inhibitor library screening): 105.7%
[3]; 501Mel Parental, 10μΜ, 72 h
  cell viability (kinase inhibitor library screening): 41.4%
[4]; A375 XP, 1μΜ, 72 h
  cell viability (kinase inhibitor library screening): 95.8%
[4]; A375 XP, 10μΜ, 72 h
  cell viability (kinase inhibitor library screening): 37.0%
[5]; IGR37 Parental, 1μΜ, 72 h
  cell viability (kinase inhibitor library screening): 94.5%
[5]; IGR37 Parental, 10μΜ, 72 h
  cell viability (kinase inhibitor library screening): 4.6%
[6]; A375 Parental, 10μΜ, 72 h
  cell viability (kinase inhibitor library screening): 48.5%
[6]; A375 Parental, 1μΜ, 72 h
  cell viability (kinase inhibitor library screening): 96.9%
[7]; A375 GP, 1μΜ, 72 h
  cell viability (kinase inhibitor library screening): 90.9%
[7]; A375 GP, 10μΜ, 72 h
  cell viability (kinase inhibitor library screening): 42.7%
[8]; 501Mel XP, 1μΜ, 72 h
  cell viability (kinase inhibitor library screening): 75.4%
[8]; 501Mel XP, 10μΜ, 72 h
  cell viability (kinase inhibitor library screening): 4.3%
[9]; IGR37 XP, 1μΜ, 72 h
  cell viability (kinase inhibitor library screening): 92.1%
[9]; IGR37 XP, 10μΜ, 72 h
  cell viability (kinase inhibitor library screening): 2.4%

## Nc1nc(N)c2nc(-c3cccc(O)c3)c(-c3cccc(O)c3)nc2n1 [TG100-115]
[1]; IGR37 GP, 10μΜ, 72 h
  Cell viability in kinase inhibitor library screening, IGR37 GP, 10μΜ: 89.4%
[1]; IGR37 GP, 1μΜ, 72 h, in %
  Cell viability in kinase inhibitor library screening, IGR37 GP, 1μΜ: 96.0
[2]; 501Mel GP, 1μΜ, 72 h, in %
  Cell viability in kinase inhibitor library screening, 501Mel GP, 1μΜ: 107.0
[2]; 501Mel GP, 10μΜ, 72 h, in %
  Cell viability in kinase inhibitor library screening, 501Mel GP, 10μΜ: 81.4
[3]; [10]
  Cell viability in kinase inhibitor library screening, 501Mel Parental, 1μΜ: 99.2
[3]; [11]
  Cell viability in kinase inhibitor library screening, 501Mel Parental, 10μΜ: 89.6
[4]; A375 XP, 1μΜ, 72 h
  Cell viability in kinase inhibitor library screening, A375 XP, 1μΜ: 103.9
[5]; [12]
  Cell viability in kinase inhibitor library screening, IGR37 Parental, 1μΜ: 97.1
[5]; [13]
  Cell viability in kinase inhibitor library screening, IGR37 Parental, 10μΜ: 98.5
[6]; A375 Parental, 10μΜ, 72 h
  Cell viability in kinase inhibitor library screening, A375 Parental, 10μΜ: 88.3
[6]; A375 Parental, 1μΜ, 72 h
  Cell viability in kinase inhibitor library screening, A375 Parental, 1μΜ: 100.3
[7]; A375 GP, 1μΜ, 72 h
  Cell viability in kinase inhibitor library screening, A375 GP, 1μΜ: 100.0
[7]; A375 GP, 10μΜ, 72 h
  Cell viability in kinase inhibitor library screening, A375 GP, 10μΜ: 91.7
[8]; 501Mel XP, 1μΜ, 72 h, in %
  Cell viability in kinase inhibitor library screening, 501Mel XP, 1μΜ: 97.0
[8]; 501Mel XP, 10μΜ, 72 h, in %
  Cell viability in kinase inhibitor library screening, 501Mel XP, 10μΜ: 81.6
[9]; IGR37 XP, 10μΜ, 72 h
  Cell viability in kinase inhibitor library screening, IGR37 XP, 10μΜ: 70.9%

## O=C(NCc1ccccc1)c1csc(Nc2ccncn2)n1 [Thiazovivin]
[1]; IGR37 GP, 1μΜ, in %
  cell viability (kinase inhibitor library screening): 92.4
[1]; IGR37 GP, 10μΜ, in %
  cell viability (kinase inhibitor library screening): 93.5
[2]; 501Mel GP, 1μΜ, in %
  cell viability (kinase inhibitor library screening): 104.3
[2]; 501Mel GP, 10μΜ, in %
  cell viability (kinase inhibitor library screening): 43.8
[3]; 501Mel Parental, 1μΜ, in %
  cell viability (kinase inhibitor library screening): 107.2
[3]; 501Mel Parental, 10μΜ, in %
  cell viability (kinase inhibitor library screening): 76.8
[4]; A375 XP, 10μΜ, in %
  cell viability (kinase inhibitor library screening): 107.7
[5]; IGR37 Parental, 1μΜ, in %
  cell viability (kinase inhibitor library screening): 97.5
[5]; IGR37 Parental, 10μΜ, in %
  cell viability (kinase inhibitor library screening): 89.5
[6]; A375 Parental, 1μΜ, in %
  cell viability (kinase inhibitor library screening): 103.7
[6]; A375 Parental, 10μΜ, in %
  cell viability (kinase inhibitor library screening): 81.8
[7]; A375 GP, 1μΜ, in %
  cell viability (kinase inhibitor library screening): 96.7
[7]; A375 GP, 10μΜ, in %
  cell viability (kinase inhibitor library screening): 87.9
[8]; 501Mel XP, 10μΜ, in %
  cell viability (kinase inhibitor library screening): 28.9
[9]; IGR37 XP, 1μΜ, in %
  cell viability (kinase inhibitor library screening): 98.5
[9]; IGR37 XP, 10μΜ, in %
  cell viability (kinase inhibitor library screening): 87.0

## CCC(=O)N1CCN(c2ccc(-n3c(=O)ccc4cnc5ccc(-c6cnc7ccccc7c6)cc5c43)cc2C(F)(F)F)CC1 [Torin 1]
[1]; IGR37 GP, 10μΜ, 72 h
  Cell viability in kinase inhibitor library screening, IGR37 GP, 10μΜ: 12.5%
[1]; IGR37 GP, 1μΜ, 72 h, in %
  Cell viability in kinase inhibitor library screening, IGR37 GP, 1μΜ: 40.0
[2]; 501Mel GP, 1μΜ, 72 h, in %
  Cell viability in kinase inhibitor library screening, 501Mel GP, 1μΜ: 20.9
[2]; 501Mel GP, 10μΜ, 72 h, in %
  Cell viability in kinase inhibitor library screening, 501Mel GP, 10μΜ: 10.6
[3]; [10]
  Cell viability in kinase inhibitor library screening, 501Mel Parental, 1μΜ: 15.1
[3]; [11]
  Cell viability in kinase inhibitor library screening, 501Mel Parental, 10μΜ: 3.3
[4]; A375 XP, 1μΜ, 72 h
  Cell viability in kinase inhibitor library screening, A375 XP, 1μΜ: 20.4
[4]; A375 XP, 10μΜ, 72 h
  Cell viability in kinase inhibitor library screening, A375 XP, 10μΜ: 13.4
[5]; [12]
  Cell viability in kinase inhibitor library screening, IGR37 Parental, 1μΜ: 23.8
[5]; [13]
  Cell viability in kinase inhibitor library screening, IGR37 Parental, 10μΜ: 10.7
[6]; A375 Parental, 10μΜ, 72 h
  Cell viability in kinase inhibitor library screening, A375 Parental, 10μΜ: 7.2
[6]; A375 Parental, 1μΜ, 72 h
  Cell viability in kinase inhibitor library screening, A375 Parental, 1μΜ: 20.5
[7]; A375 GP, 1μΜ, 72 h
  Cell viability in kinase inhibitor library screening, A375 GP, 1μΜ: 22.1
[7]; A375 GP, 10μΜ, 72 h
  Cell viability in kinase inhibitor library screening, A375 GP, 10μΜ: 6.9
[8]; 501Mel XP, 1μΜ, 72 h, in %
  Cell viability in kinase inhibitor library screening, 501Mel XP, 1μΜ: 14.1
[8]; 501Mel XP, 10μΜ, 72 h, in %
  Cell viability in kinase inhibitor library screening, 501Mel XP, 10μΜ: 2.6
[9]; IGR37 XP, 10μΜ, 72 h
  Cell viability in kinase inhibitor library screening, IGR37 XP, 10μΜ: 5.2%
[9]; IGR37 XP, 1μΜ, 72 h, in %
  Cell viability in kinase inhibitor library screening, IGR37 XP, 1μΜ: 30.3

## Cn1cnc2c(F)c(Nc3ccc(Br)cc3Cl)c(C(=O)NOCCO)cc21 [AZD6244 (Selumetinib)]
[1]; Homo sapiens, IGR-37, 72 h, read-out: cell viability, IGR37 GP, 1μΜ
  viability at 1 µM: 92%
[1]; Homo sapiens, IGR-37, 72 h, read-out: cell viability, IGR37 GP, 10μΜ
  viability at 10 µM: 62.7%
[2]; Homo sapiens, 72 h, read-out: cell viability, 501Mel GP, 1μΜ
  viability at 1 µM: 96.9%
[2]; Homo sapiens, 72 h, read-out: cell viability, 501Mel GP, 10μΜ
  viability at 10 µM: 73.6%
[3]; Homo sapiens, 72 h, read-out: cell viability, 501Mel Parental, 1μΜ
  viability at 1 µM: 61.6%
[3]; Homo sapiens, 72 h, read-out: cell viability, 501Mel Parental, 10μΜ
  viability at 10 µM: 60.6%
[4]; Homo sapiens, A-375, 72 h, read-out: cell viability, A375 XP, 1μΜ
  viability at 1 µM: 42.3%
[4]; Homo sapiens, A-375, 72 h, read-out: cell viability, A375 XP, 10μΜ
  viability at 10 µM: 15%
[5]; Homo sapiens, IGR-37, 72 h, read-out: cell viability, IGR37 Parental, 1μΜ
  viability at 1 µM: 40.2%
[5]; Homo sapiens, IGR-37, 72 h, read-out: cell viability, IGR37 Parental, 10μΜ
  viability at 10 µM: 36.6%
[6]; Homo sapiens, A-375, 72 h, read-out: cell viability, A375 Parental, 1μΜ
  viability at 1 µM: 21.3%
[6]; Homo sapiens, A-375, 72 h, read-out: cell viability, A375 Parental, 10μΜ
  viability at 10 µM: 18.6%
[7]; Homo sapiens, A-375, 72 h, read-out: cell viability, A375 GP, 1μΜ
  viability at 1 µM: 29.4%
[7]; Homo sapiens, A-375, 72 h, read-out: cell viability, A375 GP, 10μΜ
  viability at 10 µM: 17.8%
[8]; Homo sapiens, 72 h, read-out: cell viability, 501Mel XP, 1μΜ
  viability at 1 µM: 81.2%
[8]; Homo sapiens, 72 h, read-out: cell viability, 501Mel XP, 10μΜ
  viability at 10 µM: 58.1%
[9]; Homo sapiens, IGR-37, 72 h, read-out: cell viability, IGR37 XP, 1μΜ
  viability at 1 µM: 83.3%
[9]; Homo sapiens, IGR-37, 72 h, read-out: cell viability, IGR37 XP, 10μΜ
  viability at 10 µM: 42.2%

## CN1CCN(c2cccc(Nc3nc4c(-c5ccc(S(C)(=O)=O)cc5)cccn4n3)c2)CC1 [CEP33779]
[1]; IGR37 GP, 10μΜ, 72 h
  cell viability, IGR37 GP, 10μΜ: 67.9%
[1]; IGR37 GP, 1μΜ, 72 h, in %
  cell viability, IGR37 GP, 1μΜ: 93.0
[2]; 501Mel GP, 10μΜ, 72 h, in %
  cell viability, 501Mel GP, 10μΜ: 81.6
[3]; [10]
  cell viability, 501Mel Parental, 1μΜ: 94.5
[3]; [11]
  cell viability, 501Mel Parental, 10μΜ: 91.1
[4]; A375 XP, 1μΜ, 72 h, in %
  cell viability, A375 XP, 1μΜ: 100.1
[4]; A375 XP, 10μΜ, 72 h, in %
  cell viability, A375 XP, 10μΜ: 88.6
[5]; [12]
  cell viability, IGR37 Parental, 1μΜ: 103.9
[5]; [13]
  cell viability, IGR37 Parental, 10μΜ: 83.9
[6]; A375 Parental, 10μΜ, 72 h, in %
  cell viability, A375 Parental, 10μΜ: 76.5
[7]; A375 GP, 10μΜ, 72 h, in %
  cell viability, A375 GP, 10μΜ: 77.6
[8]; 501Mel XP, 1μΜ, 72 h, in %
  cell viability, 501Mel XP, 1μΜ: 88.8
[8]; 501Mel XP, 10μΜ, 72 h, in %
  cell viability, 501Mel XP, 10μΜ: 71.8
[9]; IGR37 XP, 10μΜ, 72 h
  cell viability, IGR37 XP, 10μΜ: 28.8%
[9]; IGR37 XP, 1μΜ, 72 h, in %
  cell viability, IGR37 XP, 1μΜ: 90.4
